The values that follow are results of earlier work, collected in patent publication US20060074101A1, “Method of treating post operative nausea and vomiting” (Helsinn Healthcare SA, priority 2003, published 2006).

The conditions of data set [1]: in vivo, cited from earlier work.
In data set [2] the test system is PONV. The note with it: Scuderi et al. (2002); cited from earlier work.

Where a name gives a salt, the structure may show the parent alone. Read-outs that look alike come from different tables or passages of the source.

As for `CN1C2CCCC1CC(NC(=O)c1nn(C)c3ccccc13)C2` (centres unmarked) [Kytril, granisetron hydrochloride], the plasma half-life in data set [1] was 1.77 to 17.73 h.
On to `O=C(O[C@@H]1C[C@@H]2C[C@H]3C[C@H](C1)N2CC3=O)c1c[nH]c2ccccc12` [dolasetron], for which the serum half life entry in data set [1] is on record as “approximately 7.5 hours”.
With `Cc1nccn1CC1CCc2c(c3ccccc3n2C)C1=O` (centres unmarked) [ondansetron], the serum half life in data set [1] is around 5.5 h; in data set [1] (listed as Zofran), 5 to 6 h. In data set [2], the “patients requiring additional therapy after treatment” value is 38-50%.
